# Biological target: T1, Enoyl-acyl-carrier protein reductase (Plasmodium falciparum, UniProt Q965D5)
# T1 sequence (Q965D5 whole entry): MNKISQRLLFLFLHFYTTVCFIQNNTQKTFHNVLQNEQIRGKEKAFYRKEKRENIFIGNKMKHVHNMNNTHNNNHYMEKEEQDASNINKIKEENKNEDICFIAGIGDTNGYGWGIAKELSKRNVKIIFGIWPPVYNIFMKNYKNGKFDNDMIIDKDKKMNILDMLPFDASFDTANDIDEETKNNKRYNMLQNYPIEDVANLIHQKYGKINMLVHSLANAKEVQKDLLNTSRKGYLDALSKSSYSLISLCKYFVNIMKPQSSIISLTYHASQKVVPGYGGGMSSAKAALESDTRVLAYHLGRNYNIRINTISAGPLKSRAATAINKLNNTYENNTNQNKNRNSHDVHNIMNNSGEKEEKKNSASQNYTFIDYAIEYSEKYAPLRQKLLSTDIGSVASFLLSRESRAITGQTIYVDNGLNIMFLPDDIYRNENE
# Assay: Inhibition of Plasmodium falciparum enoyl-ACP reductase assessed as oxidation of NADH to NAD+ after 10 mins by spectrophotometric analysis
# Settings: not given; call rule not given here
row,Compound,IC50
1,C[C@H]1C[C@@H](O)[C@]2(C)C(C(=O)O)=CCC[C@H]2[C@]1(C)CCc1ccoc1,Not Active
2,CCCCCCCCCCCCCCCCCCCCCCOC(=O)/C=C/c1ccc(O)c(O)c1 [DOCOSYL CAFFEATE],Not Active

# The next lines start with the values.
row,IC50,Compound
1,Not Active,COc1c(-c2ccc(O)cc2)oc2cc(O)cc(O)c2c1=O [ISOKAEMPFERIDE]
2,Not Active,CC(C)=CCc1cc(O[C@@H]2O[C@H](CO)[C@@H](O)[C@H](O)[C@H]2O)ccc1O [NEBRODENSIDE A]

# Same assay, conditions: read-out: IC50
row,IC50,Compound
1,91.1 µM,COc1ccc(-c2oc3c(Cc4c(O)c(OC)c(O)c5c(=O)c(OC)c(-c6ccc(OC)cc6)oc45)c(O)c(OC)c(O)c3c(=O)c2OC)cc1 [METHYLENEBISSANTIN]
2,920 µM,COc1cc(C(=O)O)ccc1O [VANILLIC ACID]
